We go through 7 compounds from PubChem BioAssay (NCI).

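Compound exposure: 48 hours, 5 concentrations, 96-well plates. GI50 marks 50% less growth. TGI is the concentration that stops growth completely.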

Among the test systems are OVCAR-3 ovarian; SF-295 CNS; SNB-75 CNS; A549 NSCLC; OVCAR-4 ovarian; COLO 205 colon; IGROV1 ovarian; A498 renal.
Holding throughout (assay): DTP human tumour cell line panel, 48 h

In general, GI50 refers to the concentration giving 50% growth inhibition. As usually defined, the TGI is the concentration at which net growth stops. As to `COc1cccc(C(=O)NNc2nc(Cl)nc(N3CCN(C(c4ccccc4)c4ccccc4)CC3)n2)c1`, the GI50 was 1.72 µM in the assay with OVCAR-3 ovarian; 16.8 µM with SF-295 CNS; 1.51 µM with SNB-75 CNS; 22.1 µM with A549 NSCLC; 1.73 µM with OVCAR-4 ovarian; 3.67 µM in the assay with COLO 205 colon. Further, the figures for the GI50 in the assay with IGROV1 ovarian and in the assay with A498 renal were 1.63 µM and 14.1 µM, respectively. For the same compound, the total growth inhibition concentration (TGI) came out at 3.28 µM in the assay with OVCAR-3 ovarian; 30.4 µM in the assay with SF-295 CNS; 3.56 µM in the assay on SNB-75 CNS; 83.6 µM with A549 NSCLC; 3.44 µM in the assay with OVCAR-4 ovarian; 14.3 µM in the assay with COLO 205 colon. Moreover, the TGI in the assay on IGROV1 ovarian is 3.07 µM; with A498 renal, 40.2 µM.

For `CC(C)c1cnc(-c2cc(Cl)ccc2F)cc1Nc1ccncc1C(=O)NC(CO)CO`, the GI50 in the assay with OVCAR-3 ovarian was 14.3 µM; with SF-295 CNS it was 13.1 µM; in the assay on SNB-75 CNS, 0.0515 µM; in the assay on A549 NSCLC, 11.1 µM; with OVCAR-4 ovarian, 13.7 µM; in the assay with COLO 205 colon, 14.9 µM. Besides, the GI50 is 10.3 µM in the assay with IGROV1 ovarian and 2.28 µM in the assay on A498 renal. For the same compound, the concentration for total growth inhibition (TGI) with OVCAR-3 ovarian was found to be 32.8 µM; with SF-295 CNS, 26.6 µM; in the assay on SNB-75 CNS, 25.9 µM; in the assay on A549 NSCLC, 62.3 µM; in the assay with OVCAR-4 ovarian, 66.3 µM; with COLO 205 colon, 33.9 µM. Besides, the TGI worked out at 35.4 µM in the assay with IGROV1 ovarian and 19.7 µM in the assay with A498 renal.

For the compound `CS(=O)(=O)Nc1cc(-c2ccc3ncc(C#N)c(Nc4ccc(F)c(Cl)c4)c3c2)cnc1Cl`, the GI50 is 0.0657 µM in the assay on OVCAR-3 ovarian; 0.181 µM in the assay on SF-295 CNS; 0.0251 µM with SNB-75 CNS; 0.468 µM in the assay with A549 NSCLC; 0.243 µM in the assay on OVCAR-4 ovarian; 0.232 µM in the assay with COLO 205 colon. Moreover, the concentration for 50% growth inhibition (GI50) with IGROV1 ovarian was 0.0609 µM; with A498 renal, 0.0398 µM. Moreover, the TGI with OVCAR-3 ovarian was 0.909 µM; with SF-295 CNS, 0.82 µM; in the assay on SNB-75 CNS, 0.507 µM; in the assay on A549 NSCLC, 3.12 µM; with COLO 205 colon, 0.943 µM; in the assay on IGROV1 ovarian, 0.372 µM. In the assay with A498 renal, this compound showed a total growth inhibition concentration (TGI) of 0.302 µM.

`CCc1ccc(Oc2c(-c3ccc(OCCc4cccc(C(F)(F)F)c4)cc3O)n[nH]c2C(F)(F)F)cc1`: the GI50 in the assay with OVCAR-3 ovarian is 1.52 µM; in the assay on SF-295 CNS, 8.12 µM; in the assay with SNB-75 CNS, 5.82 µM; with A549 NSCLC, 4.89 µM; in the assay with OVCAR-4 ovarian it was 2.22 µM; with COLO 205 colon, 8.72 µM. Also, the GI50 in the assay with IGROV1 ovarian was 2.51 µM; with A498 renal, 5.93 µM. Also, the total growth inhibition concentration (TGI) stood at 4.66 µM in the assay on OVCAR-3 ovarian; 15.4 µM in the assay on SF-295 CNS; 12.1 µM in the assay with SNB-75 CNS; 11.1 µM in the assay on A549 NSCLC; 8.05 µM with OVCAR-4 ovarian; 15.8 µM with COLO 205 colon. For the same compound, the TGI stood at 8.72 µM with IGROV1 ovarian and 12.8 µM in the assay on A498 renal.

For the compound `CO/N=C(/C)COc1ccc2c(c1)oc(=O)c1cc(OC)ccc12`, the GI50 in the assay on OVCAR-3 ovarian is above 100 µM; in the assay on SF-295 CNS, 82.4 µM; in the assay with SNB-75 CNS, 57.4 µM; with A549 NSCLC, above 100 µM; with OVCAR-4 ovarian, 47.1 µM; in the assay with COLO 205 colon it was above 100 µM. Besides, the GI50 in the assay on IGROV1 ovarian and in the assay on A498 renal was above 100 µM throughout. Besides, the concentration for total growth inhibition (TGI) with OVCAR-3 ovarian, in the assay on SF-295 CNS, in the assay on SNB-75 CNS, with A549 NSCLC, in the assay on OVCAR-4 ovarian and in the assay on COLO 205 colon was above 100 µM throughout. The TGI in the assay with IGROV1 ovarian and with A498 renal was above 100 µM throughout.

Turning to `COc1ccc2nc3cc([N+](=O)[O-])ccc3c(NCCO)c2c1`, the GI50 in the assay on OVCAR-3 ovarian is 2.41 µM; with SF-295 CNS, 3.49 µM; with SNB-75 CNS, 2.92 µM; with A549 NSCLC it was 4.44 µM; in the assay with OVCAR-4 ovarian it was 1.77 µM; in the assay with COLO 205 colon it was 3.31 µM. In addition, the GI50 is 3.17 µM with IGROV1 ovarian and 12.7 µM in the assay with A498 renal. Moreover, the TGI amounted to 10.2 µM with OVCAR-3 ovarian; 15.7 µM in the assay with SF-295 CNS; 16.1 µM in the assay with SNB-75 CNS; 23.9 µM with A549 NSCLC; 3.99 µM in the assay on OVCAR-4 ovarian; 17.4 µM with COLO 205 colon. The concentration for total growth inhibition (TGI) is 13.6 µM with IGROV1 ovarian and 32.7 µM with A498 renal.

On to `COc1ccc2[nH]c(C(=O)OCc3ccc4c(Br)cc(Br)c(O)c4n3)cc2c1`, for which the GI50 in the assay on OVCAR-3 ovarian was 0.447 µM; in the assay with SF-295 CNS, 2.02 µM; with SNB-75 CNS, 0.307 µM; in the assay on A549 NSCLC, 1.63 µM; with OVCAR-4 ovarian, 0.895 µM; with COLO 205 colon it was 0.442 µM. Also, the GI50 in the assay with IGROV1 ovarian is 0.418 µM; with A498 renal it was 1.8 µM. Moreover, the TGI with OVCAR-3 ovarian amounted to 1.56 µM; in the assay on SF-295 CNS it was 5.33 µM; with SNB-75 CNS, 1.73 µM; with A549 NSCLC, 3.54 µM; in the assay on OVCAR-4 ovarian it was 2.25 µM; in the assay with COLO 205 colon, 1.92 µM. The results for the TGI in the assay with IGROV1 ovarian and in the assay on A498 renal were 1.67 µM and 3.31 µM, respectively.
